Measurements taken from PubChem BioAssay (NCI).
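In this assay, cells in 96-well plates receive the compound at five concentrations for 48 hours. Endpoints are linearly interpolated between the surrounding concentrations. At the GI50, growth is halved. At the TGI there is no net growth.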

Legend:
Assay in all cases: DTP human tumour cell line panel, 48 h
[1] = test system: ACHN renal
[2] = test system: HL-60(TB) leukemia
[3] = test system: HOP-62 NSCLC
[4] = test system: HS 578T breast
[5] = test system: MOLT-4 leukemia
[6] = test system: SNB-19 CNS
[7] = test system: UACC-257 melanoma
[8] = test system: UO-31 renal

SMILES | TGI [1] | TGI [2] | TGI [3] | TGI [4] | TGI [5] | TGI [6] | TGI [7] | TGI [8] | GI50 [2] | GI50 [3] | GI50 [4] | GI50 [5] | GI50 [7] | GI50 [8]
OC(CCN1CCN(CCOC(c2ccc(F)cc2)c2ccc(F)cc2)CC1)c1ccc(Br)cc1 (configuration not stated) | 17 µM | 11.2 µM | 14.5 µM | 23.4 µM | 7.73 µM | 21.2 µM | 4.61 µM | 4.67 µM | – | – | – | – | – | –
COc1ccc2c(c1)-c1nc(=S)n(CCN(C)C)c3ccc([N+](=O)[O-])c(c13)N2 | 4.97 µM | – | 2.24 µM | 7.69 µM | 0.741 µM | 3.87 µM | 5.92 µM | 13.1 µM | – | – | – | – | – | –
Cc1ccc2nc(Nc3ccccc3C)c(Nc3ccccc3C)nc2c1 | > 100 µM | > 74.6 µM | > 100 µM | > 100 µM | > 100 µM | > 100 µM | 72.3 µM | 60.8 µM | – | – | – | – | – | –
Fc1cccc(F)c1C1SCc2nc3cc(Cl)ccc3n21 (configuration not stated) | > 100 µM | 41.3 µM | > 100 µM | > 73.4 µM | 54.7 µM | > 100 µM | > 60.6 µM | > 47.2 µM | – | – | – | – | – | –
O=C1c2cc3c(cc2-c2c1c1cc(F)c(F)cc1c(=O)n2C[C@H](O)CO)OCO3 | – | > 100 µM | 0.186 µM | > 100 µM | > 100 µM | – | 0.593 µM | 0.337 µM | 0.0426 µM | 0.0225 µM | 0.939 µM | 0.0317 µM | 0.143 µM | 0.0698 µM
CN(C)C(=O)/N=C1\SC(=Nc2ccccc2)C(=Nc2ccccc2)N1c1ccc([N+](=O)[O-])cc1 | – | > 100 µM | > 100 µM | > 100 µM | > 100 µM | > 100 µM | – | > 100 µM | – | – | – | – | – | –
Fc1ccc(OCc2ccc3nc(-c4ccccc4)c(Cl)nc3c2)cc1 | 71.7 µM | > 100 µM | 31.3 µM | 67.7 µM | 60 µM | – | > 100 µM | > 100 µM | – | – | – | – | – | –
CSc1ncnc2c1cnn2Cc1cn(COCC(O)CO)nn1 (configuration not stated) | > 100 µM | > 100 µM | > 100 µM | – | > 100 µM | > 100 µM | > 100 µM | > 100 µM | – | – | – | – | – | –
Cn1c2ccccc2c2c3c(=O)[nH][nH]c(=O)c3c3c4ccccc4n(C)c3c21 | > 100 µM | – | > 100 µM | > 100 µM | > 100 µM | > 100 µM | > 100 µM | > 100 µM | – | – | – | – | – | –
Cc1nn(C(=O)c2ccccc2O)c2c1C(c1ccc([N+](=O)[O-])cc1)SC(N)=N2 (configuration not stated) | > 8.37 µM | > 10 µM | > 10 µM | > 10 µM | > 10 µM | > 10 µM | > 10 µM | > 10 µM | – | – | – | – | – | –
C[C@@](Br)(C(=O)O)[C@H](Br)C(=O)O | > 100 µM | > 100 µM | > 100 µM | – | > 100 µM | > 100 µM | > 100 µM | > 100 µM | – | – | – | – | – | –
COc1ccc(C(=C2C(=O)OC(=O)C2=C(C)C)c2ccc(OC)cc2)cc1 | > 100 µM | 84.3 µM | > 100 µM | > 100 µM | > 100 µM | > 100 µM | > 100 µM | > 100 µM | – | – | – | – | – | –
CCOC(=O)c1c(-c2ccc(OC)cc2)c(C#N)c(=S)n(C2OC(CO)C(O)C(O)C2O)c1C (configuration not stated) | – | > 100 µM | > 100 µM | – | > 100 µM | > 100 µM | > 100 µM | > 100 µM | – | – | – | – | – | –
CC(C)NC(=O)OCc1c(COC(=O)NC(C)C)n(C)c2c1ccc1cc(Cl)c(Cl)cc12 | 24 µM | – | 28 µM | 68.9 µM | 27.9 µM | 26.6 µM | 30.6 µM | 32.8 µM | – | – | – | – | – | –
O/N=C/[C@H]1COC2(CCCCC2)O1 | > 100 µM | – | > 100 µM | > 100 µM | > 100 µM | > 100 µM | > 100 µM | > 100 µM | – | – | – | – | – | –
CC(C)(C)C#CI1OC(=O)c2ccccc21 | 8.42 µM | – | 27.2 µM | > 92.3 µM | 10 µM | 22.9 µM | 25.7 µM | 14.6 µM | – | – | – | – | – | –
CCOP(=O)(CC1OC(CO)C(O)C1O)OCC (configuration not stated) | > 100 µM | > 100 µM | > 100 µM | > 100 µM | > 100 µM | > 100 µM | > 100 µM | > 100 µM | – | – | – | – | – | –
Clc1sc(Cl)c2c1[C@H](Br)C[C@@H]2Cl | 37.4 µM | – | > 100 µM | 49.8 µM | 53.1 µM | > 100 µM | 78.2 µM | 43.8 µM | – | – | – | – | – | –
Cc1ccc(S(=O)(=O)N2CCc3cc(O)c([N+](=O)[O-])cc32)cc1 | > 100 µM | > 100 µM | > 100 µM | > 100 µM | > 100 µM | > 100 µM | > 100 µM | > 100 µM | – | – | – | – | – | –
CCC(C)C(NC(=O)C(CCCC[N+](=N)N)NC(=O)C(CCCC[N+](=N)N)NC(=O)c1ccc(OC)cc1)C(=O)NC(CCCC[N+](=N)N)C(=O)N1CCCC1C(=O)NC(CCCCN)C(=O)NC(CC(C)C)C(N)=O (configuration not stated) | > 100 µM | – | > 100 µM | > 100 µM | > 100 µM | > 100 µM | > 100 µM | > 100 µM | – | – | – | – | – | –
CC(=O)Nc1ccc2c(c1)nc1c3ccccc3ccn21 | > 100 µM | > 100 µM | > 100 µM | > 100 µM | > 100 µM | > 100 µM | > 100 µM | > 100 µM | – | – | – | – | – | –
O=C1C=CC(=O)c2c(O)c(N3CCN(c4ncccn4)CC3)c(Cl)c(O)c21 | 5.42 µM | 0.766 µM | 5.63 µM | 7.12 µM | 5.5 µM | 18 µM | 3.45 µM | 4.03 µM | – | – | – | – | – | –
CCC1(c2ccc(OC)c(OC)c2)CCN2C(=O)C(O)CC21 (configuration not stated) | > 100 µM | – | > 100 µM | – | > 100 µM | > 100 µM | > 100 µM | > 100 µM | – | – | – | – | – | –
CO[C@H](C)[C@](O)(C(=O)OCC1=CCN2CC[C@@H](O)[C@H]12)C(C)C | > 100 µM | – | > 100 µM | > 100 µM | > 100 µM | > 100 µM | > 100 µM | > 100 µM | – | – | – | – | – | –
O=c1[nH]nc(-c2ccc([N+](=O)[O-])cc2)[nH]1 | > 100 µM | > 100 µM | > 100 µM | > 100 µM | > 100 µM | > 100 µM | > 100 µM | > 100 µM | – | – | – | – | – | –
